Reference: PubChem BioAssay (NCI)
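Cells were grown in 96-well plates and exposed to each compound for 48 hours at five concentrations; endpoints were interpolated linearly between bracketing concentrations, or set to the highest concentration if not reached. GI50 marks 50% less growth. TGI: concentration producing complete growth inhibition.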

What was measured:
Experiment in all cases: inhibition of tumour cell growth, NCI panel, 48 h
[1] = tested on: 786-0 renal
[2] = tested on: A498 renal
[3] = tested on: A549 NSCLC
[4] = tested on: ACHN renal
[5] = tested on: BT-549 breast
[6] = tested on: CAKI-1 renal
[7] = tested on: CCRF-CEM leukemia
[8] = tested on: COLO 205 colon
[9] = tested on: DU-145 prostate
[10] = tested on: EKVX NSCLC
[11] = tested on: HCC-2998 colon
[12] = tested on: HCT-116 colon
[13] = tested on: HCT-15 colon
[14] = tested on: HL-60(TB) leukemia
[15] = tested on: HOP-62 NSCLC
[16] = tested on: HOP-92 NSCLC
[17] = tested on: HS 578T breast
[18] = tested on: HT29 colon
[19] = tested on: IGROV1 ovarian
[20] = tested on: K-562 leukemia
[21] = tested on: KM12 colon
[22] = tested on: LOX IMVI melanoma
[23] = tested on: M14 melanoma
[24] = tested on: MALME-3M melanoma
[25] = tested on: MCF7 breast
[26] = tested on: MDA-MB-231 breast
[27] = tested on: MDA-MB-435
[28] = tested on: MOLT-4 leukemia
[29] = tested on: NCI-H226 lung
[30] = tested on: NCI-H23 lung
[31] = tested on: NCI-H460 lung
[32] = tested on: NCI-H522 lung
[33] = tested on: NCI/ADR-RES ovarian
[34] = tested on: OVCAR-3 ovarian
[35] = tested on: OVCAR-4 ovarian
[36] = tested on: OVCAR-5 ovarian
[37] = tested on: OVCAR-8 ovarian
[38] = tested on: PC-3 prostate
[39] = tested on: RPMI-8226 leukemia
[40] = tested on: RXF 393 renal
[41] = tested on: SF-268 CNS
[42] = tested on: SF-295 CNS
[43] = tested on: SF-539 CNS
[44] = tested on: SK-MEL-2 melanoma
[45] = tested on: SK-MEL-28 melanoma
[46] = tested on: SK-MEL-5 melanoma
[47] = tested on: SK-OV-3 ovarian
[48] = tested on: SN12C renal
[49] = tested on: SNB-19 CNS
[50] = tested on: SNB-75 CNS
[51] = tested on: SR leukemia
[52] = tested on: SW-620 colon
[53] = tested on: T-47D breast
[54] = tested on: TK-10 renal
[55] = tested on: U251 CNS
[56] = tested on: UACC-257 melanoma
[57] = tested on: UACC-62 melanoma
[58] = tested on: UO-31 renal

`COc1cc2c(cc1C)NC(=O)/C2=C\c1c[nH]c2ccccc12` was tested, and the GI50 [1] was 17.8 µM, the TGI [1] was 49.2 µM and the GI50 [2] was 11.2 µM. The TGI [2] was 26.9 µM, the GI50 [3] was 28.4 µM and the TGI [3] was over 100 µM. It also gave a GI50 [4] of 11.5 µM, a TGI [4] of 27.3 µM and a GI50 [5] of 17.4 µM. For the same compound, the TGI [5] was 36.3 µM, the GI50 [6] was 10.6 µM and the TGI [6] was 32.3 µM. The GI50 [7] was 10.3 µM, the TGI [7] was over 100 µM and the GI50 [8] was 16.6 µM. The TGI [8] was over 100 µM, the GI50 [9] was 15.3 µM and the TGI [9] was 41.1 µM. It also gave a GI50 [10] of 10.9 µM, a TGI [10] of 29.7 µM and a GI50 [11] of 21.7 µM. It also gave a TGI [11] of 71.1 µM, a GI50 [12] of 21.1 µM and a TGI [12] of 90.1 µM. The GI50 [13] was 7.16 µM, the TGI [13] was 25.4 µM and the GI50 [14] was 15.9 µM. The TGI [14] was 45.5 µM, the GI50 [15] was 17.9 µM and the TGI [15] was 56.8 µM. It also gave a GI50 [16] of 10.2 µM, a TGI [16] of 29.9 µM and a GI50 [17] of 14.5 µM. The TGI [17] was 47.9 µM, the GI50 [18] was 5.27 µM and the TGI [18] was 55.9 µM. The GI50 [19] was 4.44 µM, the TGI [19] was 33.6 µM and the GI50 [20] was 8.07 µM. For the same compound, the TGI [20] was 51.5 µM, the GI50 [21] was 0.417 µM and the TGI [21] was 21.1 µM. It also gave a GI50 [22] of 11.4 µM, a TGI [22] of 29.3 µM and a GI50 [23] of 12.7 µM. It also gave a TGI [23] of 46.1 µM, a GI50 [24] of 15.3 µM and a TGI [24] of 42.3 µM. It also gave a GI50 [25] of 12.4 µM, a TGI [25] of 49.7 µM and a GI50 [26] of 4.3 µM. The TGI [26] was 21.5 µM, the GI50 [27] was 14.3 µM and the TGI [27] was 43.8 µM. For the same compound, the GI50 [28] was 5.87 µM, the TGI [28] was 43.5 µM and the GI50 [29] was 15.1 µM. The TGI [29] was 41.6 µM, the GI50 [30] was 20.2 µM and the TGI [30] was 74.6 µM. It also gave a GI50 [31] of 4.93 µM, a TGI [31] of 41.9 µM and a GI50 [32] of 12.2 µM. For the same compound, the TGI [32] was 28.9 µM, the GI50 [33] was 13 µM and the TGI [33] was 47.6 µM. The GI50 [34] was 15.4 µM, the TGI [34] was 62.9 µM and the GI50 [35] was 12.3 µM. For the same compound, the TGI [35] was 40.5 µM, the GI50 [36] was 13.5 µM and the TGI [36] was 42.7 µM. The GI50 [37] was 20.3 µM, the TGI [37] was 67.2 µM and the GI50 [38] was 12.2 µM. It also gave a TGI [38] of 31.5 µM, a GI50 [39] of 5.95 µM and a TGI [39] of 63 µM. It also gave a GI50 [40] of 7.82 µM, a TGI [40] of 47.6 µM and a GI50 [41] of 12 µM. The TGI [41] was 36.3 µM, the GI50 [42] was 6.28 µM and the TGI [42] was 38 µM. For the same compound, the GI50 [43] was 14 µM, the TGI [43] was 31.9 µM and the GI50 [44] was 4.04 µM. It also gave a TGI [44] of 25 µM, a GI50 [45] of 21.7 µM and a TGI [45] of 69.5 µM. It also gave a GI50 [46] of 14.9 µM, a TGI [46] of 30.5 µM and a GI50 [47] of 17.3 µM. For the same compound, the TGI [47] was 37.7 µM, the GI50 [48] was 11.6 µM and the TGI [48] was 27.7 µM. It also gave a GI50 [49] of 16.4 µM, a TGI [49] of 41.7 µM and a GI50 [50] of 4.12 µM. The TGI [50] was 22.9 µM, the GI50 [51] was 8.91 µM and the TGI [51] was 42.6 µM. The GI50 [52] was 20.3 µM, the TGI [52] was 53.3 µM and the GI50 [53] was 13.2 µM. The TGI [53] was 45.8 µM, the GI50 [54] was 14.1 µM and the TGI [54] was 46.5 µM. It also gave a GI50 [55] of 13.6 µM, a TGI [55] of 37.9 µM and a GI50 [56] of 21.9 µM. The TGI [56] was 43.8 µM, the GI50 [57] was 13.3 µM and the TGI [57] was 28.4 µM. For the same compound, the GI50 [58] was 10.4 µM and the TGI [58] was 62.9 µM.

In the case of `CN(C)CCNC(=O)NC[C@H]1CC[C@@H]2[C@H](O1)c1cc(C(F)(F)F)ccc1N[C@H]2c1ccccc1`, the GI50 [1] is reported as 5.42 µM, the TGI [1] is reported as 36.3 µM and the GI50 [2] is reported as 0.196 µM. For the same compound, the TGI [2] was 10.5 µM, the GI50 [3] was 0.175 µM and the TGI [3] was 17.4 µM. It also gave a GI50 [4] of 10.5 µM, a TGI [4] of 23 µM and a GI50 [5] of 0.389 µM. For the same compound, the TGI [5] was 14.7 µM, the GI50 [6] was 4.74 µM and the TGI [6] was over 68.2 µM. It also gave a GI50 [7] of 0.137 µM, a TGI [7] of 3.85 µM and a GI50 [8] of 0.0476 µM. It also gave a TGI [8] of 0.236 µM, a GI50 [9] of 0.253 µM and a TGI [9] of 0.792 µM. For the same compound, the GI50 [10] was 11.1 µM, the TGI [10] was over 100 µM and the GI50 [11] was 0.275 µM. It also gave a TGI [11] of 18.6 µM, a GI50 [12] of 0.0414 µM and a TGI [12] of 14.7 µM. The GI50 [13] was 1.02 µM, the TGI [13] was 16.5 µM and the GI50 [14] was 0.154 µM. It also gave a TGI [14] of 0.672 µM, a GI50 [15] of 1.71 µM and a TGI [15] of 24.1 µM. For the same compound, the GI50 [16] was 1.25 µM, the TGI [16] was 29 µM and the GI50 [17] was 0.173 µM. It also gave a TGI [17] of 18.1 µM, a GI50 [18] of 0.303 µM and a TGI [18] of 11.2 µM. For the same compound, the GI50 [19] was 0.578 µM, the TGI [19] was 40.7 µM and the GI50 [20] was 0.0757 µM. For the same compound, the TGI [20] was 14.8 µM, the GI50 [21] was 0.296 µM and the TGI [21] was 14.6 µM. The GI50 [22] was 2.53 µM, the TGI [22] was 27.3 µM and the GI50 [23] was 0.041 µM. The TGI [23] was 0.684 µM, the GI50 [24] was 0.582 µM and the TGI [24] was 22.4 µM. It also gave a GI50 [25] of 0.0389 µM, a TGI [25] of 13.8 µM and a GI50 [26] of 0.24 µM. It also gave a TGI [26] of 3.6 µM, a GI50 [27] of 0.0278 µM and a TGI [27] of 0.0718 µM. It also gave a GI50 [28] of 0.373 µM, a TGI [28] of 19.6 µM and a GI50 [29] of 15.1 µM. For the same compound, the TGI [29] was 43.4 µM, the GI50 [30] was 0.495 µM and the TGI [30] was over 48.3 µM. For the same compound, the GI50 [31] was 0.14 µM, the TGI [31] was 11.8 µM and the GI50 [32] was 0.0506 µM. It also gave a TGI [32] of 0.303 µM, a GI50 [33] of 5.99 µM and a TGI [33] of over 100 µM. The GI50 [34] was 0.264 µM, the TGI [34] was 10.3 µM and the GI50 [35] was 3.03 µM. For the same compound, the TGI [35] was 22.2 µM, the GI50 [36] was 0.609 µM and the TGI [36] was 22.6 µM. It also gave a GI50 [37] of 0.233 µM, a TGI [37] of over 100 µM and a GI50 [38] of 0.265 µM. The TGI [38] was 27 µM, the GI50 [39] was 0.163 µM and the TGI [39] was 8.48 µM. The GI50 [40] was 0.249 µM, the TGI [40] was 18.4 µM and the GI50 [41] was 0.589 µM. The TGI [41] was 39.6 µM, the GI50 [42] was 0.194 µM and the TGI [42] was 5.73 µM. For the same compound, the GI50 [43] was 0.187 µM, the TGI [43] was 8.31 µM and the GI50 [44] was 0.15 µM. It also gave a TGI [44] of 2.32 µM, a GI50 [45] of 1.63 µM and a TGI [45] of 21.5 µM. For the same compound, the GI50 [46] was 0.0999 µM, the TGI [46] was 15.8 µM and the GI50 [47] was 0.0425 µM. The TGI [47] was 10 µM, the GI50 [48] was 0.455 µM and the TGI [48] was over 51.7 µM. For the same compound, the GI50 [49] was 0.624 µM, the TGI [49] was over 100 µM and the GI50 [50] was 0.32 µM. For the same compound, the TGI [50] was 23.4 µM, the GI50 [51] was 0.0411 µM and the TGI [51] was 15.1 µM. The GI50 [52] was 0.0765 µM, the TGI [52] was 17.1 µM and the GI50 [53] was 0.371 µM. The TGI [53] was 17.8 µM, the GI50 [54] was 9.78 µM and the TGI [54] was 27.5 µM. The GI50 [55] was 0.0537 µM, the TGI [55] was 1.69 µM and the GI50 [56] was 10.5 µM. The TGI [56] was 23.9 µM, the GI50 [57] was 0.276 µM and the TGI [57] was 15.9 µM. For the same compound, the GI50 [58] was 6.12 µM and the TGI [58] was 34.6 µM.
